Experimental data taken from patent publication EP0297456A2, “Immunosuppressant peptides” (MERRELL DOW PHARMACEUTICALS INC., priority 1987, dated 1989).

Tests used:
[1] = system: Mixed Lymphocyte Cultures (C57BL/6 and DBA/2 leukocytes); experiment: Inhibition of ³H-thymidine incorporation in mixed lymphocyte cultures; assay type: cell-based; conditions: 120 hour incubation
Experimental: Inhibition of ³H-Thymidine Incorporation in Mixed Lymphocyte Cultures by Various Peptides
Spleens were aseptically removed and teased apart in RPMI 1640 culture media to obtain single cell suspensions. Erythrocytes were lysed by suspending cells in ACK buffer (0.155 M NH₄Cl, 0.1 mM EDTA, 0.01 M KHCO₃) and the remaining leukocytes washed. C57BL/6 (5 x 10⁵cells) and DBA/2 (5 x 10⁵cells) leukocytes were co-cultured in 0.1 ml RPMI-1640, supplemented with 2% fetal calf serum (FCS), in 96-well microtiter plates. Various concentrations of peptides were added at the initiation of cell culture. Following a 120 hour incubation (37°C), including a pulse with 1 µCi of [³H]TdR in the final 18 hours of culture, the cells were harvested with an automated cell harvester unit onto filter paper strips and placed in ACS scintillation fluid (Amersham, Oakville, Ontario). The amount of [³H]TdR incorporation was then measured in a Beckman LS 7800 liquid scintillation counter.

[2] = system: Anti-T₃ Stimulated Lymphocytes (Human peripheral blood mononuclear leukocytes MNL); experiment: Inhibition of ³H-thymidine incorporation in anti-T₃ stimulated lymphocytes; assay type: cell-based; conditions: 72 hour incubation
Experimental: Inhibition of ³H-Thymidine Incorporation in Anti-T₃ Stimulated Lymphocytes by Various Peptides
Human peripheral blood mononuclear leukocytes MNL were isolated by Ficoll-Hypaque density sedimentation. MNL ([…]) were cultured with anti-T₃ (1:10,000 dilution; Ortho Diagnostics) in 0.1 ml DMEM, supplemented with 2% FCS, in 96-well microtiter plates. Following a 72 hour incubation (37°C), including a pulse with 1 µCi of [³H]TdR in the final 18 hours of culture, the cells were harvested and counted as described in Example 6.

Substance: H-TRLTRKRGLKLATAL-NH2 [Example 2, peptide]
- % Inhibition ([1]; 14 µM BSA-conjugated peptide): 45%
- ³H-Thymidine Incorporation (cpm) ([1]; 14 µM BSA-conjugated peptide): 4406 ± 848 cpm
- % Inhibition ([1]; 28 µM BSA-conjugated peptide): 67%
- ³H-Thymidine Incorporation (cpm) ([1]; 28 µM BSA-conjugated peptide): 2209 ± 1471 cpm
- % Inhibition ([2]; 14 µM BSA-conjugated peptide): 23%
- ³H-Thymidine Incorporation (cpm) ([2]; 14 µM BSA-conjugated peptide): 44151 ± 2151 cpm
- % Inhibition ([2]; 28 µM BSA-conjugated peptide): 54%
- ³H-Thymidine Incorporation (cpm) ([2]; 28 µM BSA-conjugated peptide): 20041 ± 3331 cpm

Substance: H-LQNRRGLDLLFLKEGGL-NH2 [Example 3, peptide]
- % Inhibition ([1]; 12 µM BSA-conjugated peptide): 57%
- ³H-Thymidine Incorporation (cpm) ([1]; 12 µM BSA-conjugated peptide): 3417 ± 263 cpm
- % Inhibition ([1]; 24 µM BSA-conjugated peptide): 80%
- ³H-Thymidine Incorporation (cpm) ([1]; 24 µM BSA-conjugated peptide): 1328 ± 421 cpm
- % Inhibition ([2]; 12 µM BSA-conjugated peptide): 45%
- ³H-Thymidine Incorporation (cpm) ([2]; 12 µM BSA-conjugated peptide): 31667.±.4729 cpm
- % Inhibition ([2]; 24 µM BSA-conjugated peptide): 68%
- ³H-Thymidine Incorporation (cpm) ([2]; 24 µM BSA-conjugated peptide): 14027 ± 867 cpm

Substance: H-LRKLRKRLLRDADDL-NH2 [Example 1, peptide]
- % Inhibition ([1]; 9 µM BSA-conjugated peptide): 59%
- ³H-Thymidine Incorporation (cpm) ([1]; 9 µM BSA-conjugated peptide): 3267 ± 457 cpm
- % Inhibition ([1]; 18 µM BSA-conjugated peptide): 73%
- ³H-Thymidine Incorporation (cpm) ([1]; 18 µM BSA-conjugated peptide): 1800 ± 412 cpm
- % Inhibition ([2]; 9 µM BSA-conjugated peptide): 33%
- ³H-Thymidine Incorporation (cpm) ([2]; 9 µM BSA-conjugated peptide): 38521 ± 5349 cpm
- % Inhibition ([2]; 18 µM BSA-conjugated peptide): 50%
- ³H-Thymidine Incorporation (cpm) ([2]; 18 µM BSA-conjugated peptide): 21984 ± 3824 cpm

Substance: H-Glu-Val-Val-Leu-Gln-Asn-Arg-Arg-Gly-Leu-Leu-OH (H-EVVLQNRRGLL-OH) [Example 4, peptide]
- % Inhibition ([1]; 4 µM BSA-conjugated peptide): 28%
- ³H-Thymidine Incorporation (cpm) ([1]; 4 µM BSA-conjugated peptide): 5751 ± 407 cpm
- % Inhibition ([1]; 8 µM BSA-conjugated peptide): 54%
- ³H-Thymidine Incorporation (cpm) ([1]; 8 µM BSA-conjugated peptide): 3063 ± 372 cpm
- % Inhibition ([2]; 4 µM BSA-conjugated peptide): 5%
- ³H-Thymidine Incorporation (cpm) ([2]; 4 µM BSA-conjugated peptide): 54331 ± 4717 cpm
- % Inhibition ([2]; 8 µM BSA-conjugated peptide): 11%
- ³H-Thymidine Incorporation (cpm) ([2]; 8 µM BSA-conjugated peptide): 39248 ± 5251 cpm
